Tests used:
carrageenin paw edema = assay: rat paw edema test (antiinflammatory activity); type: in vivo, rats; conditions: ratio of activity relative to the parent NSAID; oral gavage one hour prior to carrageenin, paw volume after three hours
Experimental: The rat paw edema test was used to measure antiinflammatory activity. The rat paw edema test was performed according to the method of Winter et al., Proc. Soc. […] Male Sprague-Dawley rats (250-275 g) were fasted overnight and dosed by oral gavage with vehicle or suspensions of compound one hour prior to the subplantar injection of 50 μl of 1% suspension of carrageenin. Three hours later, the paw volume was measured and compared with the initial volume measured immediately after carrageenin injection.

[1] = tested on: phenylbenzoquinone-induced writhing; assay: phenylbenzoquinone-induced writhing test in mice (analgesic activity); type: in vivo; conditions: ratio of activity relative to the parent NSAID; oral gavage 1 hour prior to phenylbenzoquinone i.p.
Experimental: The phenylbenzoquinone-induced writhing test in mice was used to measure analgesic activity. The ability of the compounds to inhibit phenylbenzoquinone-induced writhing in mice was measured using the method of Siegmund et al., Proc. Soc. […] Male CD-1 mice (Charles River Laboratories, Wilmington, Mass.) weighing 20-25 g were fasted overnight. Vehicle or compounds were administered by oral gavage 1 hour prior to i.p. injection of 2 mg/kg of phenylbenzoquinone. In the case of a nitric oxide adduct being given in combination with a NSAID, the nitric oxide adduct was administered immediately before the NSAID. Five minutes after the i.p. injection of phenylbenzoquinone, the number of writhes in a 5 minute period was counted.

gastric lesion [2] = assay: rat gastric lesion test, acute (single dose); type: in vivo, rats
Experimental: (§1) The rat gastric lesion test (Kitagawa et al., J. Pharmacol. Exp.Ther., 253:1133-1137, 1990; Al-Ghamdi et al., J. Int. Med. Res., 19: 2242, 1991) was used to evaluate the potential of compounds to produce gastric lesion. Male Sprague Dawley rats (Charles River Laboratories, Wilmington, Mass.) weighing 230-250 g were used for the experiments. The rats were housed with laboratory chow and water ad libitum prior to the study. The rats were fasted for 24-30 hours with free access to water and then dosed by oral gavage with vehicle or with drugs given at a volume of 0.5 mL/100 g. For the unmodified NSAIDs being given in combination with a nitric oxide adduct (NO-adduct), the NO-adduct was administered by oral gavage immediately prior to the administration of NSAID by oral gavage. Food was withheld for 18 hours after the initial dosing. For acute studies, rats were euthanized by CO2 eighteen hours after dosing and the stomachs were dissected. For the multiple dosing studies, the results of which are in Table 3, food was given eighteen hours after the first dose and the rats were maintained on food and water ad libitum while receiving a single daily dose for the remainder of the experiment. […] The stomachs were dissected along the greater curvature, washed with a directed stream of 0.9% saline and pinned open on a sylgard based petridish for examination of the hemorrhagic lesion. Gastric lesion score was expressed in mm and calculated by summing the length of each lesion.

gastric lesion [3] = assay: rat gastric lesion test, multiple dosing studies; type: in vivo, rats
Experimental: as §1, with “Food was withheld for 18 hours after the initial dosing.” left out, “For the multiple dosing studies, the results of which are in Table 3, food was given eighteen hours after the first dose and the rats were maintained on food and water ad libitum while receiving a single daily dose for the remainder of the experiment.” left out

[4] = male, Sprague Dawley, rat, in vivo, po, 18 h
[5] = 7 days, fasted 24-30 hours before and 18 hours after first dosing, Ibuprofen 30, Example 11 50, Example 12 45 mg/kg
[6] = ratio of activity relative to the parent NSAID, oral gavage, fasted rats

Compound | Relative Activity Antiinflammation (carrageenin paw edema) | Relative Activity Analgesia [1] | Relative Activity Gastric Lesion (gastric lesion [2]; rat, in vivo, po) | Relative Activity Gastric Lesion (gastric lesion [2]; [4]) | Relative Gastric Lesion Activity (gastric lesion [3]; [5]) | Relative Activity Gastric Lesion (gastric lesion [2]; [6]) | Relative Gastric Lesion Activity (gastric lesion [3]; 4 days, fasted 24-30 hours before and 4 hours after first dosing, Ketoprofen 10, Example 4 14, Example 6 15 mg/kg)
CC(C(=O)OCCCCON=O)c1ccc(-c2ccccc2)c(F)c1 (stereo not drawn) [Example 13, 4-O-Nitroso-1-(2-Fluoro-α-methyl-biphenylacetic Acid) Butyl Ester] | 1.83 | 0.31 | 0.5 | – | – | – | –
CC(C(=O)O)c1ccc(-c2ccccc2)c(F)c1 (stereo not drawn) [Flurbiprofen, reference compound] | 1 | 1 | – | 1 | – | – | –
CC(C)Cc1ccc(C(C)C(=O)OCCC(C)(C)SN=O)cc1 (stereo not drawn) [Example 11, 3-S-Nitroso-3-methyl-1-(α-methyl-4-(2-methylpropyl)benzeneacetic Acid) Butyl Ester] | 1 | – | – | – | + (1-20% of the gastric toxcity induced by the parent NSAID = +) | <0.05 | –
COc1ccc2c(c1)c(CC(=O)OCCCCON=O)c(C)n2C(=O)c1ccc(Cl)cc1 [Example 8] | 1 | 1 | 0.08 | – | – | – | –
CC(C(=O)OCCCCON=O)c1cccc(C(=O)c2ccccc2)c1 (stereo not drawn) [Example 4, 4-O-Nitroso-1-(3-benzoyl-α-methylbenzeneacetic Acid) Butyl Ester] | 0.58 | 1.6 | 0.03 | – | – | – | –
CC(C(=O)OCc1ccc(CON=O)cc1)c1cccc(C(=O)c2ccccc2)c1 (stereo not drawn) [Example 16, 4O-Nitroso-hydroxymethylene-(1-(3-benzoyl-α-methylbenzeneacetic Acid)) Benzyl Ester] | – | 1.1 | – | – | – | – | –
4-O-Nitroso-4-methyl-1-(3-benzoyl-α-methylbenzeneacetic Acid) Pentyl Ester [Example 5] | – | 1.1 | – | – | – | – | –
4-O-Nitroso-1-(α-methyl-4-(2-methylpropyl)benzeneacetic Acid) Butyl Ester [Example 12] | 1 | – | – | – | + (1-20% of the gastric toxcity induced by the parent NSAID = +) | <0.03 | –
COc1ccc2c(c1)c(CC(=O)O)c(C)n2C(=O)c1ccc(Cl)cc1 [Indomethacin, reference compound] | 1 | 1 | – | 1 | – | – | –
CC(C(=O)OCCC(C)(C)SN=O)c1cccc(C(=O)c2ccccc2)c1 (stereo not drawn) [Example 6, 3-S-Nitroso-3-methyl-1-(3-benzoyl-α-methylbenzeneacetic Acid) Butyl Ester] | – | 1 | – | – | – | – | ++ (21-40% of the gastric toxcity induced by the parent NSAID = ++)
CN1C(C(=O)Nc2ccccn2)=C(O)c2ccccc2S1(=O)=O [Piroxicam, reference compound] | – | 1 | – | 1 | – | – | –
